From PubChem BioAssay (NCI)
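Values below derive from 48-hour exposures of cells grown in 96-well plates, with endpoints linearly interpolated between the two concentrations bracketing the appropriate inhibition level. Abbreviation: GI50, concentration required for 50% inhibition of growth. The concentration for full growth arrest is given as TGI.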

Key:
Experiment in all cases: growth of human tumour cells (NCI), 48 h
CAKI-1 renal = test system: CAKI-1 renal
MALME-3M melanoma = test system: MALME-3M melanoma
HOP-92 NSCLC = test system: HOP-92 NSCLC
SK-MEL-28 melanoma = test system: SK-MEL-28 melanoma
SK-MEL-5 melanoma = test system: SK-MEL-5 melanoma
TK-10 renal = test system: TK-10 renal
SF-268 CNS = test system: SF-268 CNS
NCI-H460 lung = test system: NCI-H460 lung
SK-MEL-2 melanoma = test system: SK-MEL-2 melanoma
T-47D breast = test system: T-47D breast

| SMILES | TGI (CAKI-1 renal) [µM] | TGI (MALME-3M melanoma) [µM] | TGI (HOP-92 NSCLC) [µM] | TGI (SK-MEL-28 melanoma) [µM] | TGI (SK-MEL-5 melanoma) [µM] | TGI (TK-10 renal) [µM] | TGI (SF-268 CNS) [µM] | TGI (NCI-H460 lung) [µM] | TGI (SK-MEL-2 melanoma) [µM] | GI50 (CAKI-1 renal) [µM] | GI50 (MALME-3M melanoma) [µM] | GI50 (NCI-H460 lung) [µM] | GI50 (SK-MEL-28 melanoma) [µM] | GI50 (T-47D breast) [µM] | TGI (T-47D breast) [µM] | GI50 (SK-MEL-5 melanoma) [µM] | GI50 (TK-10 renal) [µM] | GI50 (SF-268 CNS) [µM] | GI50 (HOP-92 NSCLC) [µM] | GI50 (SK-MEL-2 melanoma) [µM] |
| --- | --- | --- | --- | --- | --- | --- | --- | --- | --- | --- | --- | --- | --- | --- | --- | --- | --- | --- | --- | --- |
| Cc1ccc(NC(=O)C(=O)C2C(=O)N(c3ccccc3)N=C2N)cc1C (stereo unspecified) | > 100 | > 100 | > 100 | > 100 | > 100 | > 100 | > 100 |  |  |  |  |  |  |  |  |  |  |  |  |  |
| Cc1[nH]c2ccccc2c1C1Cc2ccccc2N1C(=O)/C=C/C=C/c1ccccc1 (stereo unspecified) | > 100 | > 100 | > 100 | > 100 | > 100 | > 100 |  | > 100 | > 100 |  |  |  |  |  |  |  |  |  |  |  |
| COc1ccc2nc(-c3cc(-c4cc(OC)c(OC)c(OC)c4)n[nH]3)[nH]c2c1 | 5.64 | 6.4 |  | 5.26 | 1.77 | 7.58 | 9.38 | 8.08 |  | 1.79 | 1.74 | 2.64 | 1.9 | 0.346 | 1.92 | 0.462 | 2.21 | 2.74 |  |  |
| Cc1nc(Cl)nc(Cl)c1C |  | > 100 |  | > 100 | > 100 | > 100 | > 100 | > 100 | > 100 |  |  |  |  |  |  |  |  |  |  |  |
| COc1cc(/C=C2/C(=O)N(C(=O)OC(C)C)C(Cc3cc(OC)c(OC)c(C)c3OC)C(=O)N2Cc2ccccc2)c(OC)c(C)c1OC (stereo unspecified) | > 100 | > 100 | > 100 | > 100 | > 100 | > 100 | > 100 | > 100 | > 100 |  |  |  |  |  |  |  |  |  |  |  |
| COc1ccc(C(=O)OCC2OC(n3cnc4c(=S)nc[nH]c43)C(OC(=O)c3ccc(OC)cc3)C2OC(=O)c2ccc(OC)cc2)cc1 (stereo unspecified) | > 100 | > 100 | > 100 | > 100 | > 100 | > 100 | > 100 | > 100 | > 100 |  |  |  |  |  |  |  |  |  |  |  |
| CCOC(=O)C12CCCC1(O)N(NC(=O)c1ccccc1)C(C)=C2C(=O)OC (stereo unspecified) | > 100 | > 100 | > 100 |  |  | > 100 | > 100 | > 100 | > 100 |  |  |  |  |  |  |  |  |  |  |  |
| COC(=O)C1=C2CCC(=O)[C@@]2(C)C(OC(C)=O)C=CC1 (stereo partly specified) | > 100 | > 100 |  | > 100 | > 100 | > 100 |  | > 100 | > 100 |  |  |  |  |  |  |  |  |  |  |  |
| CC1CC2(C)ON=C(c3ccccc3)N2c2ccccc2S1 (stereo unspecified) |  |  |  |  | 32.1 |  |  |  |  | 78.6 |  | 41.3 | 76.7 | 58.5 |  | 16.9 |  | 36.3 |  |  |
| O=C(O)C(CP(=O)(O)O)=C(Cl)Cl |  | > 100 | > 100 | > 100 |  | > 100 | > 100 | > 100 | > 100 |  |  |  |  |  |  |  |  |  |  |  |
| CC(=O)OC(/C=C1/C=CC(=O)O1)COC(=O)c1ccccc1 (stereo unspecified) | > 31.2 | > 31.2 | > 31.2 | > 31.2 | > 31.2 | > 31.2 | > 31.2 | > 31.2 |  |  |  |  |  |  |  |  |  |  |  |  |
| COc1ccc2c(=O)c(C)c(-c3ccccc3)oc2c1CN(C)C | > 100 | > 100 | > 100 | > 100 | > 100 | > 100 | > 100 | > 100 |  |  |  |  |  |  |  |  |  |  |  |  |
| Cc1ccc(NC(=O)CCC(CC(=O)C(C)(C)C)=NNC(=O)C(=O)NN)cc1C | > 100 | > 100 |  | > 100 | > 100 | > 100 | > 100 | > 100 | > 100 |  |  |  |  |  |  |  |  |  |  |  |
| CC1=C(C(=O)Nc2ccc(F)c(Cl)c2)C(c2ccccc2Cl)NC(=S)N1 (stereo unspecified) | > 50 |  | > 50 | > 50 | > 50 | > 50 | > 50 | > 50 | > 50 | 37 |  | 23.7 | > 50 | > 50 | > 50 | 12.4 | 48.8 | 27.6 | > 50 | 26.8 |
| CCC[CH2][Sn]1([CH2]CCC)[O]C(=O)c2cc(I)cc(I)c2[O]1 | 2.15 | 2.23 | 2.93 |  | 2.88 | 2.52 | 2.89 | 2.76 | 1.94 | 0.637 | 1 | 1.45 |  |  |  | 1.54 | 1.25 | 1.29 | 1.4 | 0.491 |
| COC(=O)/C=C1/CCC2[C@@H](C(=O)CC3[C@]2(C)CCC[C@@]3(C)C(=O)OC)C1C (stereo partly specified) | 17.4 | 34.8 | 18.1 | 26.8 | 20.8 | 36.1 | 38.6 | 51.7 | 35.7 |  |  |  |  |  |  |  |  |  |  |  |
| CCOC(C)C(/C=N/NC(N)=S)=NNC(N)=S (stereo unspecified) | > 100 | > 100 | > 100 | > 100 | > 100 | > 100 | > 100 | > 100 | > 85.3 |  |  |  |  |  |  |  |  |  |  |  |
| Cn1nccc1Nc1nccc(-c2cc3c(s2)C(C)(C)N(CCN2CCOCC2)C3=O)n1 | > 100 | > 100 |  | > 100 | 58 | > 100 | > 100 | > 100 | 6.74 | 6.66 | 0.183 | 21.4 | 0.348 | 17.4 | > 77.7 | 1.31 | 1.31 | 27.8 |  | 0.402 |
| COc1cc(/C=C2\[C@H]3c4c(c(OC)c(C)c(OC)c4OC)C[C@@H](C(=O)N2Cc2ccccc2)N3C(=O)OCC(C)C)c(OC)c(C)c1OC | > 100 | > 100 | > 100 | > 100 | > 100 | > 100 | > 100 | > 100 | > 100 |  |  |  |  |  |  |  |  |  |  |  |
| C/C(=C\C(C)COCc1ccccc1)[C@H](COCc1ccccc1)OCc1ccccc1 (stereo partly specified) |  |  | > 100 | > 100 | > 100 | > 100 | > 100 | > 100 | > 100 |  |  |  |  |  |  |  |  |  |  |  |
| O=S(=O)(/C=C/c1ccc(Cl)cc1Cl)Cc1ccccc1CS(=O)(=O)/C=C/c1ccc(Cl)cc1Cl | > 100 |  | > 100 | > 100 |  | > 100 | > 100 | > 100 | > 100 |  |  |  |  |  |  |  |  |  |  |  |
